Structures are written as SMILES.

This assay deals with Puccinia recondita tritici = Puccinia triticina (PUCCRT). Nature of the assay: Fungicidal activity vs. leaf rust on wheat plants. Type of assay: in vivo. Particulars: wheat (Yuma) sprayed at 50 ppm, inoculated the following day, rated 7-9 days later, read-out: Puccinia Rating (% Disease Control @ 50 ppm). From the text: D. Evaluation of Fungicidal Activity vs. Leaf Rust (Causal Agent Puccinia Recondita Tritici=Puccinia Triticina; Bayer Code PUCCRT)
Each pot contained 3-8 seedlings. These plants were sprayed until wet with the formulated test compounds. The compounds were formulated at 50 ppm in 10 vol. % acetone plus 90 vol. % Triton X water (deionized water 99.99 wt %+0.01 wt % Triton X100), giving a “formulated test compound.” Formulated test compounds were applied to plants using a turn table sprayer fitted with two opposing air atomization nozzles which delivered approximately 1500 L/ha of spray volume. On the following day, the leaves were inoculated with an aqueous spore suspension of Puccinia recondita tritici and the plants were kept in high humidity overnight to permit spores to germinate and infect the leaf. The plants were then transferred to a greenhouse until disease developed on untreated control plants. Disease severity was evaluated 7-9 days later, depending on the speed of disease development.
In each case of Table 3, the Puccinia rating scale is as follows: […]
Consider `OC(Cn1cnnn1)(c1ccc(F)cc1F)C(F)(F)c1ccc(OCc2ccnc(Cl)c2)cn1` (stereo not shown) [Compound 117, 1-(5-((2-chloropyridin-4-yl)methoxy)pyridin-2-yl)-2-(2,4-difluorophenyl)-1,1-difluoro-3-(1H-tetrazol-1-yl)propan-2-ol], for which the pest or weed control at 50 ppm fell in the range of 80 to 100%.

In the case of `CO/N=C/c1ccc(Oc2ccc(C(F)(F)C(O)(Cn3cnnn3)c3ccc(F)cc3F)nc2)nc1` (stereo not shown) [Compound 102, (E)-6-((6-(2-(2,4-difluorophenyl)-1,1-difluoro-2-hydroxy-3-(1H-tetrazol-1-yl)propyl)pyridin-3-yl)oxy)nicotinaldehyde O-methyl oxime], the pest or weed control at 50 ppm lay within 80 to 100%. The value for `COc1ccc(Oc2ccc(C(F)(F)C(O)(Cn3cnnn3)c3ccc(F)cc3F)nc2)cc1` (stereo not shown) [Compound 87, 2-(2,4-Difluorophenyl)-1,1-difluoro-1-(5-(4-methoxyphenoxy)pyridin-2-yl)-3-(1H-tetrazol-1-yl)propan-2-ol] was 80 to 100%.

In the case of `OC(Cn1cnnn1)(c1ccc(F)cc1F)C(F)(F)c1ccc(Oc2ncc(C(F)(F)F)cc2Cl)cn1` (stereo not shown) [Compound 92, 1-(5-((3-chloro-5-(trifluoromethyl)pyridin-2-yl)oxy)pyridin-2-yl)-2-(2,4-difluorophenyl)-1,1-difluoro-3-(1H-tetrazol-1-yl)propan-2-ol], the pest or weed control at 50 ppm lay within 80 to 100%. Next, `OC(Cn1cnnn1)(c1ccc(F)cc1F)C(F)(F)c1ccc(Oc2ccc(Cl)cc2)cn1` (stereo not shown) [Compound 7, 1-(5-(4-Chlorophenoxy)pyridin-2-yl)-2-(2,4-difluorophenyl)-1,1-difluoro-3-(1H-tetrazol-1-yl)propan-2-ol]: 80 to 100%; `N#Cc1cc(Oc2ccc(C(F)(F)C(O)(Cn3cnnn3)c3ccc(F)cc3F)nc2)ccn1` (stereo not shown) [Compound 96, 4-((6-(2-(2,4-difluorophenyl)-1,1-difluoro-2-hydroxy-3-(1H-tetrazol-1-yl)propyl)pyridin-3-yl)oxy)picolinonitrile]: 60 to 79%; `OC(Cn1cnnn1)(c1ccc(F)cc1F)C(F)(F)c1ccc(OCc2cccc(C(F)(F)F)c2)cn1` (stereo not shown) [Compound 26, 2-(2,4-Difluorophenyl)-1,1-difluoro-3-(1H-tetrazol-1-yl)-1-(5-((3-(trifluoromethyl)benzyl)oxy)pyridin-2-yl)propan-2-ol]: 80 to 100%. The value for `OC(Cn1cnnn1)(c1ccc(F)cc1F)C(F)(F)c1ccc(OCc2ccc(C(F)(F)F)cn2)cn1` (stereo not shown) [Compound 114, 2-(2,4-difluorophenyl)-1,1-difluoro-3-(1H-tetrazol-1-yl)-1-(5-((5-(trifluoromethyl)pyridin-2-yl)methoxy)pyridin-2-yl)propan-2-ol] was 80 to 100%; that for `OC(Cn1cnnn1)(c1ccc(F)cc1F)C(F)(F)c1ccc(Oc2ncc(C(F)(F)F)cc2F)cn1` (stereo not shown) [Compound 104, 2-(2,4-difluorophenyl)-1,1-difluoro-1-(5-((3-fluoro-5-(trifluoromethyl)pyridin-2-yl)oxy)pyridin-2-yl)-3-(1H-tetrazol-1-yl)propan-2-ol] was 80 to 100%. Take `OC(Cn1cnnn1)(c1ccc(F)cc1F)C(F)(F)c1ccc(OCc2ccc(Cl)c(F)c2)cn1` (stereo not shown) [Compound 27, 1-(5-((4-Chloro-3-fluorobenzyl)oxy)pyridin-2-yl)-2-(2,4-difluorophenyl)-1,1-difluoro-3-(1H-tetrazol-1-yl)propan-2-ol]: the pest or weed control at 50 ppm was 80 to 100%. With `OC(Cn1cnnn1)(c1ccc(F)cc1F)C(F)(F)c1ccc(Oc2ncc(Br)cn2)cn1` (stereo not shown) [Compound 99, 1-(5-((5-bromopyrimidin-2-yl)oxy)pyridin-2-yl)-2-(2,4-difluorophenyl)-1,1-difluoro-3-(1H-tetrazol-1-yl)propan-2-ol], the pest or weed control at 50 ppm was 80 to 100%. Next, `OC(Cn1cnnn1)(c1ccc(F)cc1F)C(F)(F)c1ccc(OCC(F)(F)c2ccccc2)cn1` (stereo not shown) [Compound 119, 1-(5-(2,2-difluoro-2-phenylethoxy)pyridin-2-yl)-2-(2,4-difluorophenyl)-1,1-difluoro-3-(1H-tetrazol-1-yl)propan-2-ol]: 80 to 100%. Consider `OC(Cn1cnnn1)(c1ccc(F)cc1F)C(F)(F)c1ccc(OCC(F)(F)c2ccc(OC(F)F)cc2)cn1` (stereo not shown) [Compound 120, 1-(5-(2-(4-(difluoromethoxy)phenyl)-2,2-difluoroethoxy)pyridin-2-yl)-2-(2,4-difluorophenyl)-1,1-difluoro-3-(1H-tetrazol-1-yl)propan-2-ol], for which the pest or weed control at 50 ppm fell in the range of 80 to 100%.

In the case of `OC(Cn1cnnn1)(c1ccc(F)cc1F)C(F)(F)c1ccc(OCc2ccc(F)c(F)c2)cn1` (stereo not shown) [Compound 28, 1-(5-((3,4-Difluorobenzyl)oxy)pyridin-2-yl)-2-(2,4-difluorophenyl)-1,1-difluoro-3-(1H-tetrazol-1-yl)propan-2-ol], the pest or weed control at 50 ppm fell in the range of 80 to 100%. Next, `COc1cccc(Oc2ccc(C(F)(F)C(O)(Cn3cnnn3)c3ccc(F)cc3F)nc2)c1` (stereo not shown) [Compound 85, 2-(2,4-Difluorophenyl)-1,1-difluoro-1-(5-(3-methoxyphenoxy)pyridin-2-yl)-3-(1H-tetrazol-1-yl)propan-2-ol]: 80 to 100%.

Consider `N#Cc1ccc(Oc2ccc(C(F)(F)C(O)(Cn3cnnn3)c3ccc(F)cc3F)nc2)cc1F` (stereo not shown) [Compound 17, 4-((6-(2-(2,4-Difluorophenyl)-1,1-difluoro-2-hydroxy-3-(1H-tetrazol-1-yl)propyl)pyridin-3-yl)oxy)-2-fluorobenzonitrile], for which the pest or weed control at 50 ppm was 80 to 100%. The value for `N#Cc1ccc(Oc2ccc(C(F)(F)C(O)(Cn3cnnn3)c3ccc(F)cc3F)nc2)c(F)c1` (stereo not shown) [Compound 89, 4-((6-(2-(2,4-Difluorophenyl)-1,1-difluoro-2-hydroxy-3-(1H-tetrazol-1-yl)propyl)pyridin-3-yl)oxy)-3-fluorobenzonitrile] was 80 to 100%; that for `OC(Cn1cnnn1)(c1ccc(F)cc1F)C(F)(F)c1ccc(OCc2ccc(OC(F)(F)F)cc2)cn1` (stereo not shown) [Compound 21, 2-(2,4-Difluorophenyl)-1,1-difluoro-3-(1H-tetrazol-1-yl)-1-(5-((4-(trifluoromethoxy)benzyl)oxy)pyridin-2-yl)propan-2-ol] was 80 to 100%; that for `OC(Cn1cnnn1)(c1ccc(F)cc1F)C(F)(F)c1ccc(OCc2ccccc2F)cn1` (stereo not shown) [Compound 46, 2-(2,4-Difluorophenyl)-1,1-difluoro-1-(5-((2-fluorobenzyl)oxy)pyridin-2-yl)-3-(1H-tetrazol-1-yl)propan-2-ol] was 80 to 100%. Regarding `CC(Oc1ccc(C(F)(F)C(O)(Cn2cnnn2)c2ccc(F)cc2F)nc1)C(F)(F)F` (stereo not shown) [Compound 47, 2-(2,4-Difluorophenyl)-1,1-difluoro-3-(1H-tetrazol-1-yl)-1-(5-((1,1,1-trifluoropropan-2-yl)oxy)pyridin-2-yl)propan-2-ol], the pest or weed control at 50 ppm is 80 to 100%. With `N#Cc1ccc(COc2ccc(C(F)(F)C(O)(Cn3cnnn3)c3ccc(F)cc3F)nc2)s1` (stereo not shown) [Compound 73, 5-(((6-(2-(2,4-Difluorophenyl)-1,1-difluoro-2-hydroxy-3-(1H-tetrazol-1-yl)propyl)pyridin-3-yl)oxy)methyl)thiophene-2-carbonitrile], the pest or weed control at 50 ppm was 80 to 100%.

`N#Cc1ccc(Oc2ccc(C(F)(F)C(O)(Cn3cnnn3)c3ccc(F)cc3F)nc2)nc1` (stereo not shown) [Compound 93, 6-((6-(2-(2,4-difluorophenyl)-1,1-difluoro-2-hydroxy-3-(1H-tetrazol-1-yl)propyl)pyridin-3-yl)oxy)nicotinonitrile]: the pest or weed control at 50 ppm lay in the range of 80 to 100%. With `N#Cc1cnc(Oc2ccc(C(F)(F)C(O)(Cn3cnnn3)c3ccc(F)cc3F)nc2)s1` (stereo not shown) [Compound 107, 2-((6-(2-(2,4-difluorophenyl)-1,1-difluoro-2-hydroxy-3-(1H-tetrazol-1-yl)propyl)pyridin-3-yl)oxy)thiazole-5-carbonitrile], the pest or weed control at 50 ppm was less than 40%.

Regarding `COc1ccc(COc2ccc(C(F)(F)C(O)(Cn3cnnn3)c3ccc(F)cc3F)nc2)cc1` (stereo not shown) [Compound 41, 2-(2,4-Difluorophenyl)-1,1-difluoro-1-(5-((4-methoxybenzyl)oxy)pyridin-2-yl)-3-(1H-tetrazol-1-yl)propan-2-ol], the pest or weed control at 50 ppm was 80 to 100%. On to `N#Cc1ccc(CSc2ccc(C(F)(F)C(O)(Cn3cnnn3)c3ccc(F)cc3F)nc2)c(F)c1` (stereo not shown) [Compound 15, 4-(((6-(2-(2,4-Difluorophenyl)-1,1-difluoro-2-hydroxy-3-(1H-tetrazol-1-yl)propyl)pyridin-3-yl)thio)methyl)-3-fluorobenzonitrile], for which the pest or weed control at 50 ppm lay within 40 to 59%. Consider `N#Cc1ccc(COc2ccc(C(F)(F)C(O)(Cn3cnnn3)c3ccc(F)cc3F)nc2)cc1` (stereo not shown) [Compound 9, 4-(((6-(2-(2,4-Difluorophenyl)-1,1-difluoro-2-hydroxy-3-(1H-tetrazol-1-yl)propyl)pyridin-3-yl)oxy)methyl)benzonitrile], for which the pest or weed control at 50 ppm is 80 to 100%. Regarding `OC(Cn1cnnn1)(c1ccc(F)cc1F)C(F)(F)c1ccc(Oc2ccc(Br)cn2)cn1` (stereo not shown) [Compound 106, 1-(5-((5-bromopyridin-2-yl)oxy)pyridin-2-yl)-2-(2,4-difluorophenyl)-1,1-difluoro-3-(1H-tetrazol-1-yl)propan-2-ol], the pest or weed control at 50 ppm was in the range of 80 to 100%. Consider `OC(Cn1cnnn1)(c1ccc(F)cc1F)C(F)(F)c1ccc(Oc2ccc(C(F)(F)F)cn2)cn1` (stereo not shown) [Compound 94, 2-(2,4-difluorophenyl)-1,1-difluoro-3-(1H-tetrazol-1-yl)-1-(5-((5-(trifluoromethyl)pyridin-2-yl)oxy)pyridin-2-yl)propan-2-ol], for which the pest or weed control at 50 ppm lay within 80 to 100%.

The values above are taken from US8796001B2, “Metalloenzyme inhibitor compounds” (Viamet Pharmaceuticals, Inc., priority 2011, dated 2014).
